Laboratory results published in patent US20250170098A1, “MOLECULAR JACKHAMMER FOR MECHANICAL DESTRUCTION OF CELLULAR STRUCTURE” (William Marsh Rice University, priority 2022, published 2025).

Test system: B16-F10 melanoma tumors
Assay: Treatment of B16-F10 melanoma tumors in C57BL/6 mice
Format: in vivo, mouse
Experimental: Injection of B16-F10 cells subcutaneously in C57BL/6J mice to generate the melanoma tumors. The B16-F10 cells were cultured as described before. Cells were harvested from sub-confluent plates, ˜90%, and fresh media was added to the cells the day before harvesting. The cells were harvested using 0.05% trypsin-EDTA (Gibco, 25-300-054). The harvested cells were re-dispersed in DMEM media without supplements at 1×10^6 cells mL^−1. The cell suspension was kept in ice. Then 100 μL of cells were injected per mouse (this was 100,000 cells per mouse) subcutaneously in the right flank of a 7-8-week-old female mouse (C57BL/6J), in which the hair in the right flank was previously depilated using a shaver. […] Starting at day 12 the tumors were measured using a caliper. […] The volume of the tumor was calculated as: (½)×length×width×height. When the height was not possible to measure in the case of the tumors which were too small (usually <100 mm^3), then the tumor volume was calculated as: (½)×length×width^2. […]
Treatment of B16-F10 tumors with Cy7.5-amine and NIR 730 nm light. […] The light intensity was measured using an Optical Power Meter from Thorlabs, sensor model S302C and console model PM100D. While under light treatment the temperature at the tumor area was measured using an IR thermal camera (Model: Compact Seek Thermal for Android. Seek Thermal, Inc. Santa Barbara, CA). […]

CN1/C(=C\C=C2C=C(/C=C/C3=[N+](CCCCCC(=O)NCCCCCCN)c4ccc5ccccc5c4C3(C)C)CCC\2)C(C)(C)c2c1ccc1ccccc21 [Cy7.5-amine]
size of the B16-F10 tumors (8 μg in 50 μL PBS intratumorally, 730 nm LED at for 5 min): significantly reduced
temperature increase of B16-F10 tumors under light treatment (Cy7.5-amine with light, for 5 min): ~5 °C
